ChEMBL document CHEMBL4330136, “Shape-based virtual screen for the discovery of novel CDK8 inhibitor chemotypes” (Bioorg Med Chem Lett, 2019)

Experiments:
CDK8/Cyclin C = CDK8/Cyclin C (Homo sapiens, UniProt P49336); assay: Inhibition of kinase tracer 236 binding to recombinant full length His-tagged human CDK8/CycC expressed in baculovirus expression system preincubated for 20 mins followed by tracer addition and measured after 2 hrs by FRET-based LanthaScreen Eu kinase binding assay
HCT-116 [1] = assay: Growth inhibition of human HCT116 cells after 72 hrs by Celltiter-glo assay; format: functional, cell-based; settings: HCT-116, 72 h
SW-620 [2] = assay: Growth inhibition of human SW620 cells after 72 hrs by Celltiter-glo assay; format: functional, cell-based; settings: SW-620, 72 h
HCT-116 [3] = assay: Cell cycle arrest in human HCT116 cells assessed as accumulation at G1-phase at 5 uM after 12 to 16 hrs by propidium iodide staining based flow cytometry (reference value: 30.99%); format: functional
HCT-116 [4] = assay: Cell cycle arrest in human HCT116 cells assessed as accumulation at G1-phase at 15 uM after 12 to 16 hrs by propidium iodide staining based flow cytometry (reference value: 30.99%); format: functional
HCT-116 [5] = assay: Cell cycle arrest in human HCT116 cells assessed as accumulation at G1-phase at 30 uM after 12 to 16 hrs by propidium iodide staining based flow cytometry (reference value: 30.99%); format: functional
HCT-116 [6] = assay: Cell cycle arrest in human HCT116 cells assessed as accumulation at S-phase at 5 uM after 12 to 16 hrs by propidium iodide staining based flow cytometry (reference value: 55.74%); format: functional
HCT-116 [7] = assay: Cell cycle arrest in human HCT116 cells assessed as accumulation at S-phase at 15 uM after 12 to 16 hrs by propidium iodide staining based flow cytometry (reference value: 55.74%); format: functional
HCT-116 [8] = assay: Cell cycle arrest in human HCT116 cells assessed as accumulation at S-phase at 30 uM after 12 to 16 hrs by propidium iodide staining based flow cytometry (reference value: 55.74%); format: functional
HCT-116 [9] = assay: Cell cycle arrest in human HCT116 cells assessed as accumulation at G2-phase at 5 uM after 12 to 16 hrs by propidium iodide staining based flow cytometry (reference value: 13.28%); format: functional
HCT-116 [10] = assay: Cell cycle arrest in human HCT116 cells assessed as accumulation at G2-phase at 15 uM after 12 to 16 hrs by propidium iodide staining based flow cytometry (reference value: 13.28%); format: functional
HCT-116 [11] = assay: Cell cycle arrest in human HCT116 cells assessed as accumulation at G2-phase at 30 uM after 12 to 16 hrs by propidium iodide staining based flow cytometry (reference value: 13.28%); format: functional
SW-620 [12] = assay: Cell cycle arrest in human SW620 cells assessed as accumulation at G1-phase at 5 uM after 12 to 16 hrs by propidium iodide staining based flow cytometry (reference value: 24.69%); format: functional
SW-620 [13] = assay: Cell cycle arrest in human SW620 cells assessed as accumulation at G1-phase at 15 uM after 12 to 16 hrs by propidium iodide staining based flow cytometry (reference value: 24.69%); format: functional
SW-620 [14] = assay: Cell cycle arrest in human SW620 cells assessed as accumulation at G1-phase at 30 uM after 12 to 16 hrs by propidium iodide staining based flow cytometry (reference value: 24.69%); format: functional
SW-620 [15] = assay: Cell cycle arrest in human SW620 cells assessed as accumulation at S-phase at 5 uM after 12 to 16 hrs by propidium iodide staining based flow cytometry (reference value: 53.91%); format: functional
SW-620 [16] = assay: Cell cycle arrest in human SW620 cells assessed as accumulation at S-phase at 15 uM after 12 to 16 hrs by propidium iodide staining based flow cytometry (reference value: 53.91%); format: functional
SW-620 [17] = assay: Cell cycle arrest in human SW620 cells assessed as accumulation at S-phase at 30 uM after 12 to 16 hrs by propidium iodide staining based flow cytometry (reference value: 53.91%); format: functional
SW-620 [18] = assay: Cell cycle arrest in human SW620 cells assessed as accumulation at G2-phase at 5 uM after 12 to 16 hrs by propidium iodide staining based flow cytometry (reference value: 19.02%); format: functional
SW-620 [19] = assay: Cell cycle arrest in human SW620 cells assessed as accumulation at G2-phase at 15 uM after 12 to 16 hrs by propidium iodide staining based flow cytometry (reference value: 19.02%); format: functional
SW-620 [20] = assay: Cell cycle arrest in human SW620 cells assessed as accumulation at G2-phase at 30 uM after 12 to 16 hrs by propidium iodide staining based flow cytometry (reference value: 19.02%); format: functional
HCT-116 [21] = assay: Induction of G1-phase to S-phase transition arrest in human HCT116 cells after 12 to 16 hrs by propidium iodide staining based flow cytometry; format: functional, cell-based

Sequence of CDK8/Cyclin C (P49336 whole entry): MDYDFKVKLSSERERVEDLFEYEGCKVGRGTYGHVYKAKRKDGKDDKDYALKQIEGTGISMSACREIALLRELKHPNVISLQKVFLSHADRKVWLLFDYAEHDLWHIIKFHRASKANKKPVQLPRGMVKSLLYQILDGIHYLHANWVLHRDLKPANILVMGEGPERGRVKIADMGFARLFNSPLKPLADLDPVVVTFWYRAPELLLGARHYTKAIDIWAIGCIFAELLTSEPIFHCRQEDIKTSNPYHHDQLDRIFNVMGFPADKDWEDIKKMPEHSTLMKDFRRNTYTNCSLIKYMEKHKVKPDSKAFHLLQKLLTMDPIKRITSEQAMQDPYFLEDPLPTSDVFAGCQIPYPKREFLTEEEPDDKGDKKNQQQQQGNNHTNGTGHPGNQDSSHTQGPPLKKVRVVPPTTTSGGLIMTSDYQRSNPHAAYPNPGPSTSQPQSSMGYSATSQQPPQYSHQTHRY
Sequence of CDK8/Cyclin C (P24863 whole entry, further chain): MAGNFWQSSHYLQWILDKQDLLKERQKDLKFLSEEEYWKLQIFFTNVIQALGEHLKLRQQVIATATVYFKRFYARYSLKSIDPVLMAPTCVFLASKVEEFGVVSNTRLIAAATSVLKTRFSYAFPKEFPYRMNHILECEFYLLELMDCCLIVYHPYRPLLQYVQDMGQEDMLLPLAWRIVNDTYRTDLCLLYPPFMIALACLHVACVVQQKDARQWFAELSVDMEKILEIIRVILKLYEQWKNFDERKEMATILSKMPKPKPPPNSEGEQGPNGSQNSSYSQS

Row | Compound | IC50 (CDK8/Cyclin C) [µM] | IC50 (HCT-116 [1]) [µM] | IC50 (SW-620 [2]) [µM] | Activity (HCT-116 [3]) [%] | Activity (HCT-116 [4]) [%] | Activity (HCT-116 [5]) [%] | Activity (HCT-116 [6]) [%] | Activity (HCT-116 [7]) [%] | Activity (HCT-116 [8]) [%] | Activity (HCT-116 [9]) [%] | Activity (HCT-116 [10]) [%] | Activity (HCT-116 [11]) [%] | Activity (SW-620 [12]) [%] | Activity (SW-620 [13]) [%] | Activity (SW-620 [14]) [%] | Activity (SW-620 [15]) [%] | Activity (SW-620 [16]) [%] | Activity (SW-620 [17]) [%] | Activity (SW-620 [18]) [%] | Activity (SW-620 [19]) [%] | further results
1 | COc1ccc(C(=O)c2cnc3ccc(F)cc3c2N2CCCCC2)cc1 | 1.3 | 4.5 | 25 | 35.24 | 47.09 | 62.66 | 51.63 | 38.98 | 23.48 | 13.13 | 13.92 | 13.86 | 25.08 | 28.05 | 41.68 | 54.27 | 51.89 | 38.54 | 18.15 | 17.69 | Activity (SW-620 [20]): 16.94%; Activity (HCT-116 [21]): Dose-dependent effect
2 | COc1ccc(CNc2ncnc3scc(-c4ccccc4)c23)cc1 | 2.9 | – | – | – | – | – | – | – | – | – | – | – | – | – | – | – | – | – | – | – | –
3 | Cc1n[nH]c2ncc(C(=O)N3CCC[C@H]3c3ccc(Cl)cc3)cc12 | – | 70.2 | 52.4 | 48.91 | 47.08 | 50.47 | 29.34 | 27.98 | 22.36 | 21.76 | 24.8 | 27.16 | 27.52 | 30.31 | 34.8 | 56.44 | 54.86 | 50.77 | 13.83 | 12.35 | Activity (SW-620 [20]): 11.66%
